In test [1] the test system is U-87 MG. The test is described as follows: Cytotoxicity against human U-87 MG cells assessed as inhibition of cell growth measured after 48 hrs by MTT assay. It counts as functional, cell-based, U-87MG ATCC.
In test [2] the test system is A549. The test is described as follows: Cytotoxicity against human A549 cells assessed as inhibition of cell growth measured after 48 hrs by MTT assay. The note with it: A549, 48 h. It counts as functional, cell-based.
Test [3] concerns MKN-45. The test is described as follows: Cytotoxicity against human MKN-45 cells assessed as inhibition of cell growth measured after 48 hrs by MTT assay. Format: functional, cell-based. The note with it: MKN-45, 48 h.
The subject of test [4] is HCT-116. The test is described as follows: Cytotoxicity against human HCT-116 cells assessed as inhibition of cell growth measured after 48 hrs by MTT assay. Format: functional, cell-based. The note with it: HCT-116, 48 h.
For test [5], the system named is U-87 MG. The test is described as follows: Cytotoxicity against human U-87 MG cells assessed as inhibition of cell growth at 200 uM measured after 48 hrs by MTT assay. Format: functional, cell-based. Particulars: U-87MG ATCC.
The subject of test [6] is A549. The test is described as follows: Cytotoxicity against human A549 cells assessed as inhibition of cell growth at 200 uM measured after 48 hrs by MTT assay. It counts as functional, cell-based.
For test [7], the system named is MKN-45. The test is described as follows: Cytotoxicity against human MKN-45 cells assessed as inhibition of cell growth at 200 uM measured after 48 hrs by MTT assay. It counts as functional, cell-based.
The test system of test [8] is HCT-116. The test is described as follows: Cytotoxicity against human HCT-116 cells assessed as inhibition of cell growth at 200 uM measured after 48 hrs by MTT assay. Format: functional, cell-based.
Test [9] relates to U-87 MG. The test is described as follows: Cytotoxicity against human U-87 MG cells assessed as inhibition of cell growth at 100 uM measured after 48 hrs by MTT assay. Format: functional, cell-based. The note with it: U-87MG ATCC.
For test [10], the system named is U-251. The test is described as follows: Cytotoxicity against human U-251 cells assessed as inhibition of cell growth measured after 48 hrs by MTT assay. Format: functional, cell-based. The note with it: U-251, 48 h.
For test [11], the system named is A 172. The test is described as follows: Cytotoxicity against human A 172 cells assessed as inhibition of cell growth measured after 48 hrs by MTT assay. The note with it: A 172, 48 h. Format: functional, cell-based.
Test [12] relates to U-118-MG. The test is described as follows: Cytotoxicity against human U-118-MG cells assessed as inhibition of cell growth measured after 48 hrs by MTT assay. Format: functional, cell-based.
Test [13] concerns L02. The test is described as follows: Cytotoxicity against human L02 cells assessed as inhibition of cell growth measured after 48 hrs by MTT assay. It counts as cell-based. The note with it: L02, 48 h.
For test [14], the system named is NCM460. The test is described as follows: Cytotoxicity against human NCM460 cells assessed as inhibition of cell growth measured after 48 hrs by MTT assay. It counts as cell-based. The note with it: NCM460, 48 h.
Test [15] has as its system CCD-841CoN. The test is described as follows: Cytotoxicity against human CCD-841CoN cells assessed as inhibition of cell growth measured after 48 hrs by MTT assay. It counts as cell-based.
Test [16] concerns U-87 MG. The test is described as follows: Effect on cell morphology in human U-87 MG cells assessed as appearance of round cells. It counts as functional, cell-based. Particulars: U-87MG ATCC.
In test [17] the test system is U-118-MG. The test is described as follows: Effect on cell morphology in human U-118-MG cells assessed as appearance of round cells. Format: functional, cell-based.
The subject of test [18] is U-87 MG. The test is described as follows: Effect on cell morphology in human U-87 MG cells assessed as lose of adherence. It counts as functional, cell-based. Particulars: U-87MG ATCC.
For test [19], the system named is U-118-MG. The test is described as follows: Effect on cell morphology in human U-118-MG cells assessed as lose of adherence. It counts as functional, cell-based.
In test [20] the test system is U-87 MG. The test is described as follows: Induction of cell cycle arrest in human U-87 MG cells assessed as accumulation of cells at G2/M phase at 0.5 times IC50 measured after 48 hrs by PI staining based flow cytometry analysis (Rvb= 5.39%). It counts as functional, U-87MG ATCC.
In test [21] the test system is U-87 MG. The test is described as follows: Induction of apoptosis in human U-87 MG cells assessed as live cells at 44 uM measured after 48 hrs by annexin V-FITC/PI staining based flow cytometry analysis (Rvb= 91.6%). Format: functional, U-87MG ATCC.
Test [22] concerns U-87 MG. The test is described as follows: Induction of apoptosis in human U-87 MG cells assessed as early apoptotic cells at 44 uM measured after 48 hrs by annexin V-FITC/PI staining based flow cytometry analysis (Rvb= 6.21%). It counts as functional, U-87MG ATCC.
Test [23] concerns U-87 MG. The test is described as follows: Induction of apoptosis in human U-87 MG cells assessed as late apoptotic cells at 44 uM measured after 48 hrs by annexin V-FITC/PI staining based flow cytometry analysis (Rvb= 2.11%). It counts as functional, U-87MG ATCC.
For test [24], the system named is U-87 MG. The test is described as follows: Induction of apoptosis in human U-87 MG cells assessed as dead cells at 44 uM measured after 48 hrs by Annexin V-FITC/PI staining based flow cytometry analysis (Rvb= 0.098%). It counts as functional, U-87MG ATCC.

Active and inactive are the calls of the source. The rule behind the calls is not given here.

As for `Nc1nc2ncccc2cc1C(=O)NCc1cccnc1`, the IC50 was 303 µM in test [1], above 200 µM in [2], above 200 µM in test [3] and above 200 µM in test [4].
On to `Nc1nc2cc3c(cc2cc1C(=O)NCCc1c[nH]c2ccccc12)OCCO3`, for which, in test [1], the IC50 was 44.4 µM.
For the molecule `Nc1nc2cc3c(cc2cc1C(=O)NCC1CC1)OCO3`, the IC50 in [1] was 77.2 µM; in test [2] it was above 200 µM; in test [3], above 200 µM; in [4], above 200 µM.
As for `C#CCNC(=O)c1cc2cc3c(cc2nc1N)OCO3`, the IC50 in [1] was above 200 µM; in test [2], 92 µM; in [3], above 200 µM; in test [4], above 200 µM.
With `COc1cc2nc(N)c(C(=O)NCCc3c[nH]c4ccccc34)cc2c(Cl)c1OC`, the IC50 in test [1] was 60.8 µM; in test [3] it was 75.1 µM.
Take `Cn1nnc2c(C(N)=O)ncn2c1=O` [TEMOZOLOMIDE]: the IC50 in test [1] is above 200 µM.
For `Nc1nc2cc3c(cc2cc1C(=O)NCc1cccnc1)OCO3`, the IC50 is 109 µM in test [1], above 200 µM in [2], above 200 µM in test [3] and 163 µM in [4]. The result in test [5], in test [6], in [7] and in test [8] was inactive.
Take `Nc1nc2cc(Cl)ccc2cc1C(=O)NCc1cccnc1`: the IC50 in [1] is 125 µM; in test [2], above 200 µM; in [3] it was above 200 µM; in [4], above 200 µM.
As for `Nc1nc2cc3c(cc2cc1C(=O)NCCc1c[nH]c2ccccc12)OCO3`, the IC50 was 45.5 µM in test [1], above 200 µM in test [2], 76.9 µM in test [3] and above 200 µM in test [4].
Take `c1cc2cc3c(cc2nc1C1CC1)OCO3`: the IC50 in test [1] was above 200 µM. Moreover, the outcome in [9] was inactive.
On to `COc1cc2cc(C(=O)NCCc3c[nH]c4ccccc34)c(N)nc2cc1OC`, for which the IC50 was 43.6 µM in [1]; 72.3 µM in test [3]; 121 µM in test [10]; 23.7 µM in test [11]; 29.2 µM in test [12]; 118 µM in [13]. In addition, the IC50 in test [14] worked out at 222 µM; in test [15] it was 135 µM. Besides, the result in test [9], in test [16], in [17], in [18] and in [19] was Active. Further, the Activity is listed as 23.14% in test [20]; 5.65% in test [21]; 50.9% in test [22]; 43% in [23]; 0.45% in test [24].
For `Nc1nc2cc3c(cc2cc1C(=O)NCc1ccccc1)OCO3`, the IC50 in test [1] was 75.6 µM; in [2] it was above 200 µM; in test [3], above 200 µM; in test [4] it was above 200 µM.
As for `Nc1nc2cc3c(cc2cc1C(=O)NCCN1C(=O)c2cccc4cccc(c24)C1=O)OCO3`, the IC50 in test [1] is above 200 µM; in test [2], 73.4 µM.

For the origin of these results see ChEMBL document CHEMBL5030541, “Non-alkylator anti-glioblastoma agents induced cell cycle G2/M arrest and apoptosis: Design, in silico physicochemical and SAR studies of 2-aminoquinoline-3-carboxamides” (Bioorg Med Chem Lett, 2021).
